According to US20160303114A1 (Laguna Pharmaceuticals, Inc., priority 2013, published 2016):

How the values were obtained:
[1] = Example 5: concentrations of vanoxerine and its metabolites in patients after a 300 mg dose of vanoxerine; assay type: in vivo, human; details: low concentration group, 300 mg vanoxerine
Method: Each patient gave samples before administration of their dose, and then again at nine further time points, 30 minutes after administration, 1, 2, 3, 4, 6, 8, 12, and 24 hours post administration.

[2] = healthy subjects, higher doses of vanoxerine; cited from earlier work
[3] = Example 4: plasma concentrations of vanoxerine in patients after an oral vanoxerine HCL tablet; assay type: in vivo, human; details: outlier patient, CYP2D6 slow metabolizer
Text: The results identified high levels of variability between patients and a single outlier, who was particularly profiled to determine the possible cause of the high plasma concentration levels.
Accordingly, the individual patient could have received administration of ½ to ¼ the dose of other patients for the same effective plasma concentration as the majority of the patients in the study.

[4] = Preliminary studies of daily use of vanoxerine over 7, 10 and 14 days; assay type: in vivo; details: daily use over 7, 10, and 14 days, 75, 100, 125, and 150 mg a day
Text: However, control and prevention of events of cardiac arrhythmia are important to these patients to prevent future recurrences and the deleterious effects and morbidity.

plasma levels, highest at any time point [1]: ~40 ng/mL
plasma concentration [3]: unusually high plasma concentration
Compound: Fc1ccc(C(OCCN2CCN(CCCc3ccccc3)CC2)c2ccc(F)cc2)cc1 [Vanoxerine, 1-[2-[bis(4-fluorophenyl)methoxy]ethyl]-4-(3-phenylpropyl)piperazine]
effects seen at higher doses [2]: concentration difficulties, increase systolic blood pressure, asthenia, and a feeling of drug influence
effects of daily use [4]: increased heart rate and systolic blood pressure
